Laboratory results taken from patent US11207320B2, “Compositions and methods for cancer expressing PDE3A or SLFN12” (The Broad Institute, Inc., priority 2015, dated 2021).

Key:
A549 cells [1] = experiment: Compound sensitivity testing in cell lines (48 h viability); type: cell-based; conditions: Homo sapiens; A549, 48 hours
Method: (§1) 1500 NCI-H1734 or 1000 A549 cells were plated in a 384-well plate in 40 μl of RPMI supplemented with 10% Fetal Bovine Serum and 1% Pen/Strep. 24 hours after plating, a compound-library of 1924 small molecules was added at a concentration of 10 μM. Staurosporine was used a positive control for cytotoxicity at a concentration of 10 μM, and DMSO was used a negative control at a concentration of 1%. All compounds were incubated for 48 hours with indicated small molecules. After 48 hours, 384-well plates were removed from the incubator and allowed to cool to room temperature for 20 minutes. Cell viability was assessed by adding 40 μl of a 25% CELLTITERGLO® (Promega) in PBS with a THERMO COMBI™ or multichannel-pipette and incubated for 10 minutes. The luminescence signal was read using a Perkin-Elmer EnVision. Viability percentage was calculated by normalizing to DMSO controls.
(§2) 1000 HeLa (DMEM), 1000 A549 (RPMI), 500 MCF-7 (DMEM), 4000 PC3 (F12-K), 1000 NCI-H2122 (RPMI) or 1500 NCI-H1563 (RPMI) cells were plated in a 384-well plate in 40 μl of corresponding growth media supplemented with 10% Fetal Bovine Serum. 24 hours after plating, indicated compounds were added at indicated concentrations and incubated for 48 hours. Cell viability was assessed as described in Compound library screening in NCI-H1734 and A549 cell lines.

MCF7 cells = experiment: as above; type: cell-based; conditions: Homo sapiens; MCF7, 48 hours
Method: as §1, §2

NCI-H1563 cells = experiment: as above; type: cell-based; conditions: Homo sapiens; NCI-H1563, 48 hours
Method: as §1, §2

NCI-H2122 cells = experiment: as above; type: cell-based; conditions: Homo sapiens; NCI-H2122, 48 hours
Method: as §1, §2

PC3 cells = experiment: as above; type: cell-based; conditions: Homo sapiens, PC-3; PC3, 48 hours
Method: as §1, §2

HeLa cells = experiment: Caspase activity in HeLa cells (Caspase-Glo); type: cell-based; conditions: DNMDP treatment 48 hours
Method: 1000 HeLa cells were plated in 384-well plate in 40 μl of corresponding growth media supplemented with 10% Fetal Bovine Serum. 24 hours after plating, indicated compounds were added at indicated concentrations and incubated for 48 hours. Caspase-Glo from Promega was added according to the manufacturers recommendations and luminescence was determined as described in Compound library screening in NCI-H1734 and A549 cell lines.

234 kinases = experiment: Screening of 234 kinases; type: biochemical; conditions: 10 μM
PDE3A and SLFN12 = molecular target: T1, PDE3A and SLFN12 (Homo sapiens, UniProt Q14432); experiment: Validation of DNMDP-induced PDE3A protein interactions using immunoprecipitation and immunoblotting; type: cell-based; conditions: for PDE3A and SLFN12 complex formation: FIG. 20, affinity reagents, immunoblot; for complex formation of V5-tagged SIRT7 and SLFN12 with PDE3A: HeLa, 10 μM, 4 hours, coimmunoprecipitation (FIG. 19)
T1 construct: Endogenous PDE3A was immunoprecipitated; host or cells: HeLa
Method: FIG. 19 is an immunoblot showing that DNMDP induces interaction between PDE3A and SIRT7 and SLFN12 in HeLa cells. HeLa cells were transfected with indicated plasmids and treated with indicated compounds with a final concentration of 10 μM for four hours. Endogenous PDE3A was immunoprecipitated and immunoblotted for V5 to identify novel interaction with SIRT7 and SLFN12 (upper two panels). Immunoprecipitate input was immunoblotted for PDE3A and V5 (lower two panels). V5-SLFN12 was undetectable in whole cell lysate.
FIG. 20 is an immunoblot showing confirmation of mass spectrometric results herein using affinity reagents.
HeLa cells were transfected with ORF overexpression constructs expressing V5-tagged SIRT7, V5-tagged SLFN12, or V5-tagged GFP. ORF expression constructs were obtained from the TRC (clone IDs: TRCN0000468231, TRCN0000476272, ccsbBroad304_99997). At 72 hours post transfection, cells were treated with 10 μM DNMDP or trequinsin for 4 hours followed by lysis using the ModRipa lysis buffer and immunoprecipitation of PDE3A. For each condition, 2 mg total protein lysate was incubated with 1 μg of anti-PDE3A antibody at 4° C. overnight, after which 7.5 μl each of Protein A- and Protein G-Dynabeads (Life Technologies 10001D and 10003D) were added and incubated for another 1 hour. Beads were washed and bound proteins were eluted with 30 μl of LDS PAGE gel loading buffer. Input (˜60 μg total protein lysate) and IP products were resolved on 4-12% Tris-Glycine PAGE gels and immunoblotted with an anti-V5 antibody (Life Technologies R96205, 1:5000), the Bethyl anti-PDE3A antibody (1:1000), and secondary antibodies from LiCOR Biosciences (Cat.#926-32210 and 926068021, each at 1:10,000). Blots were washed and imaged using a LiCOR Odyssey infrared imager.

A549 cells [2] = experiment: Sensitization of DNMDP-resistant cell line by expression of SLFN12 or SLFN12 and PDE3A; type: cell-based; conditions: A549 expressing SLFN12
From the text: FIG. 22 is a plot showing sensitization of a DNMDP-resistant cell line by expression of SLFN12 or expression of SFLN12 and PDE3A.
Adding PDE3A expression led to further sensitization.

PDE3A = PDE3A (Homo sapiens, UniProt Q14432); experiment: Linker-affinity purification of molecular target of DNMDP and immunoblotting; type: binding; set-up: Immunoprecipitation of endogenous PDE3A in HeLa cells; endogenous in cells; host or cells: HeLa; conditions: HeLa cell lysate, competitor 10 μM, immunoblot for PDE3A
Method: To identify the molecular target of DNMDP, an affinity purification was performed using an (R)-des-nitro-DNMDP solid-phase tethered linker analogue (FIG. 10A) incubated with HeLa cell lysate. […] It was competed for the molecular target by adding either an excess of trequinsin or separate enantiomers of DNMDP, where only the (R)-enantiomer was cytotoxic. […] Binding of PDE3A to the linker analogue was blocked by both trequinsin and (R)-DNMDP, but not by the non-cytotoxic enantiomer (S)-[…]. 9C). Thus both trequinsin and (R)-DNMDP prevented the binding of PDE3A to the tethered DNMDP analogue, and it was concluded that both molecules bind PDE3A directly. HeLa cells were washed with ice-cold PBS before lysed with NP-40 lysis buffer (150 mM NaCl, 10% glycerol, 50 mM Tris-Cl pH 8.0, 50 mM MgCl2, 1% NP-40) supplemented with EDTA-free protease inhibitors (Roche) and phosphatase inhibitor mixtures I and II (Calbiochem). […] Samples were washed three times with lysis buffer containing corresponding compound concentrations of 10 μM. Proteins bound to Affi-Gel 102 resin were reduced, denatured, and separated using Tris-Glycine gels (Novex) and transferred to nitrocellulose membranes using the iBlot transfer system (Novex). Membranes were incubated overnight at 4° C. with primary antibodies against PDE3A (1:1000, Bethyl). […]

T1 sequence (Q14432 whole entry): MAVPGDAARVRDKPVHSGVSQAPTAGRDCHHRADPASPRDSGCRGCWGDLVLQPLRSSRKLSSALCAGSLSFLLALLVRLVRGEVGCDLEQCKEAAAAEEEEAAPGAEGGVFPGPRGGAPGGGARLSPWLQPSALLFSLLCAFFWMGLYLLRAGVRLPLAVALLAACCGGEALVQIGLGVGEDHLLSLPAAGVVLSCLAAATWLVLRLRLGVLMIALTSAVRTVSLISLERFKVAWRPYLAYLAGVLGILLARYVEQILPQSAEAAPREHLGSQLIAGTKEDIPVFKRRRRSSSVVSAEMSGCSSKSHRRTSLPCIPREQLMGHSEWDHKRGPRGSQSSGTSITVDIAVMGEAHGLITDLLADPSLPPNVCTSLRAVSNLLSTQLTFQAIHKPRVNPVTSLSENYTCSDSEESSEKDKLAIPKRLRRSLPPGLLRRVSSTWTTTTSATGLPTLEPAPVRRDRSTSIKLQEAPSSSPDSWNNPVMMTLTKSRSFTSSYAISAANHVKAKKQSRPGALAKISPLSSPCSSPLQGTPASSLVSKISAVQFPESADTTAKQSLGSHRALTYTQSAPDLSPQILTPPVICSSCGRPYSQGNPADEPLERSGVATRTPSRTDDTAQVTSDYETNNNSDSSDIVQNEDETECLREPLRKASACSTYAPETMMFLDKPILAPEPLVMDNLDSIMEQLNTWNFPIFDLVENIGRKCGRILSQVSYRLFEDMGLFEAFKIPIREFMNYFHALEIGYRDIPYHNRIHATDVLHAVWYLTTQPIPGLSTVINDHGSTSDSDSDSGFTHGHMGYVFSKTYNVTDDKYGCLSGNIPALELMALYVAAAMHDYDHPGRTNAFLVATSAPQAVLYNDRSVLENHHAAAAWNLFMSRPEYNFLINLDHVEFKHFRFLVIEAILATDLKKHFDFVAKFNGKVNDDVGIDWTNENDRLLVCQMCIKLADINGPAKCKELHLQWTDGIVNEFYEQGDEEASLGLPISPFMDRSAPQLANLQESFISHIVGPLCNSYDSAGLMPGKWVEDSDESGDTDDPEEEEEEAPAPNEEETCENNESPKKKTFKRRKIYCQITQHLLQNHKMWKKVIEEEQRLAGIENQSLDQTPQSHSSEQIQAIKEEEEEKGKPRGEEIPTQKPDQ
T1 sequence (Q8IYM2 whole entry partner): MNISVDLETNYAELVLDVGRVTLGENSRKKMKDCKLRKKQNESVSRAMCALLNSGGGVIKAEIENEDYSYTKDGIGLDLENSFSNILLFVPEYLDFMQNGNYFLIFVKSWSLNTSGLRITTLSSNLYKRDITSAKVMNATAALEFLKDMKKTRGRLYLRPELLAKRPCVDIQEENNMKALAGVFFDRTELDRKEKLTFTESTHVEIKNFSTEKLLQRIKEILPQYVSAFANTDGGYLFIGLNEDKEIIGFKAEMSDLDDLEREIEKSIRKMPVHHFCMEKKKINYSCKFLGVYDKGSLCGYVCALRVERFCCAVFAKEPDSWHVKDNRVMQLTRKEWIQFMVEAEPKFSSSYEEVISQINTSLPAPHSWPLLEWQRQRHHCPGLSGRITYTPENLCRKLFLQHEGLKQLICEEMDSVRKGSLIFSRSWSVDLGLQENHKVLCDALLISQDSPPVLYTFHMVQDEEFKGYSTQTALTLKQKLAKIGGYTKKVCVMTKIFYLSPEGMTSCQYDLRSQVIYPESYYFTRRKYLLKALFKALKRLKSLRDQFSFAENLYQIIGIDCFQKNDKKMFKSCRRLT
Sequence of PDE3A (Q14432 whole entry): as the sequence (Q14432 whole entry) above

EC50 (A549 cells [1]) [nM] | EC50 (MCF7 cells) [nM] | EC50 (NCI-H1563 cells) [nM] | EC50 (NCI-H2122 cells) [nM] | EC50 (PC3 cells) [nM] | kinase inhibition (234 kinases) | PDE3A and SLFN12 complex formation (PDE3A and SLFN12) | complex formation of V5-tagged SIRT7 and SLFN12 with PDE3A (PDE3A and SLFN12) | blocking of binding of PDE3A to the tethered linker analogue (PDE3A) | Structure (SMILES) | Caspase activity (caspase-sensitive luciferase assay) (HeLa cells) | sensitivity of A549 cells upon expression of SLFN12 (A549 cells [2])
> 1000 | > 1000 | 10 to 100 | 10 to 100 | > 1000 | no kinase inhibition | induced | enhanced |  | CCN(CC)c1ccc(C2=NNC(=O)CC2C)cc1[N+](=O)[O-] (stereo not shown) [DNMDP, 6-(4-(diethylamino)-3-nitrophenyl)-5-methyl-4,5-dihydropyridazin-3(2H)-one] | detected | sufficient to confer DNMDP sensitivity
 |  |  |  |  |  | not | not | blocked | COc1cc2c(cc1OC)-c1c/c(=N\c3c(C)cc(C)cc3C)n(C)c(=O)n1CC2 [trequinsin, 9,10-dimethoxy-3-methyl-2-(2,4,6-trimethylphenyl)imino-6,7-dihydropyrimido[6,1-a]isoquinolin-4-one] |  | 
